According to ChEMBL document CHEMBL1201862, “PubChem BioAssay data set” (2004):
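Values below derive from 48-hour exposures of cells grown in 96-well plates, with endpoints linearly interpolated between the two concentrations bracketing the appropriate inhibition level. GI50 is the concentration that inhibits growth by half.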 Active and inactive are the calls of the source. Rule as the data show it: active = GI50 up to about 1.1 µM and inactive = higher.

Columns and labels:
Test in all cases: inhibition of tumour cell growth, NCI panel, 48 h
Hs-578T = system: Hs-578T
T47D = system: T47D
MDA-MB-231 = system: MDA-MB-231
DU-145 = system: DU-145
MDA-MB-435 = system: MDA-MB-435
PC-3 = system: PC-3
BT-549 = system: BT-549
RXF 631 = system: RXF 631

Measured: GI50

Cc1ccc([N+](=O)[O-])cc1S(=O)(=O)Nc1ccc(C2=NNC(c3ccccc3O)C2)cc1 (centres undefined)
inactive: Hs-578T 43.7 µM | T47D 17.3 µM | MDA-MB-231 26.7 µM | DU-145 38.7 µM | MDA-MB-435 22.1 µM | PC-3 29.4 µM | BT-549 19.7 µM

COC(Cc1cc(C(O)(c2ccc(C(C)(C)C)cc2)c2cc(CC(OC)(c3cc(C(OC)(c4ccc(C(C)(C)C)cc4)c4ccc(C(C)(C)C)cc4)c(C)cc3C)c3cc(C(OC)(c4ccc(C(C)(C)C)cc4)c4ccc(C(C)(C)C)cc4)c(C)cc3C)c(C)cc2C)c(C)cc1C)(c1cc(C(OC)(c2ccc(C(C)(C)C)cc2)c2ccc(C(C)(C)C)cc2)c(C)cc1C)c1cc(C(OC)(c2ccc(C(C)(C)C)cc2)c2ccc(C(C)(C)C)cc2)c(C)cc1C
inactive: Hs-578T > 75 µM | T47D > 75 µM | MDA-MB-231 > 75 µM | DU-145 > 75 µM | MDA-MB-435 > 75 µM | PC-3 > 75 µM | BT-549 > 75 µM

Cc1cc(C)c(S(=O)(=O)N(CCCCCN)OCCCN)c(C)c1
inactive: Hs-578T 22 µM | T47D 20.6 µM | MDA-MB-231 31.7 µM | DU-145 16.7 µM | MDA-MB-435 18.2 µM | PC-3 14.7 µM | BT-549 17.4 µM

Cc1ccc(NP(=O)(Oc2ccccc2)N(CCCl)CCCl)cc1 (centres undefined)
inactive: RXF 631 10 µM

CC(=O)c1c(-c2ccco2)c(C#N)c(=S)n(C2OC(CO)C(O)C(O)C2O)c1C (centres undefined)
inactive: Hs-578T 64.9 µM | T47D 35.5 µM | MDA-MB-231 > 100 µM | DU-145 > 100 µM | MDA-MB-435 36.4 µM | PC-3 > 100 µM | BT-549 > 100 µM
